Experimental data published in patent EP4635500A1, “THERAPEUTIC AGENT FOR BACTERIAL INFECTION” (Sumitomo Pharma Co., Ltd., priority 2022, dated 2024).
Converted amounts (≈) assume the structure as drawn. Like-named read-outs stand apart in the source and are kept apart here.

System: Enterobacterales
Test: MIC, broth microdilution, CDC/FDA Antibiotic Resistance Isolate Bank (Example 7, Tables 8, 11, 12)
Format: cell-based
Settings: for MIC: read-out: MIC; for MIC90: read-out: MIC90

With `CO/N=C(\C(=O)N[C@@H]1C(=O)N2C(C(=O)[O-])=C(C[n+]3ccn4ncccc43)CS[C@H]12)c1nsc(N)n1` [Cefozopran, cefozopran] the MIC (Klebsiella pneumoniae, KUB No. 5538, AR Bank# 41) was > 64 µg/mL, the MIC (Klebsiella pneumoniae, KUB No. 5540, AR Bank# 43) was > 64 µg/mL and the MIC (Klebsiella pneumoniae, KUB No. 5541, AR Bank# 44) was > 64 µg/mL. For the same compound, the MIC (Klebsiella pneumoniae, KUB No. 5543, AR Bank# 46) was > 64 µg/mL, the MIC (Klebsiella pneumoniae, KUB No. 5546, AR Bank# 49) was > 64 µg/mL and the MIC (Klebsiella pneumoniae, KUB No. 5563, AR Bank # 66) was > 64 µg/mL. The MIC (Klebsiella pneumoniae, KUB No. 5565, AR Bank # 68) was > 64 µg/mL, the MIC (Klebsiella pneumoniae, KUB No. 5572, AR Bank # 75) was > 64 µg/mL and the MIC (Klebsiella pneumoniae, KUB No. 5573, AR Bank # 76) was 64 µg/mL (≈ 124 µM). For the same compound, the MIC (Klebsiella pneumoniae, KUB No. 5576, AR Bank # 79) was > 64 µg/mL, the MIC (Klebsiella pneumoniae, KUB No. 5577, AR Bank # 80) was > 64 µg/mL and the MIC (Klebsiella pneumoniae, KUB No. 5584, AR Bank # 87) was 32 µg/mL (≈ 62.1 µM). The MIC (Klebsiella pneumoniae, KUB No. 5594, AR Bank # 97) was > 64 µg/mL, the MIC (Klebsiella pneumoniae, KUB No. 5595, AR Bank # 98) was 16 µg/mL (≈ 31 µM) and the MIC (Klebsiella pneumoniae, KUB No. 5603, AR Bank # 106) was > 64 µg/mL. For the same compound, the MIC (Klebsiella pneumoniae, KUB No. 5604, AR Bank # 107) was > 64 µg/mL, the MIC (Klebsiella pneumoniae, KUB No. 5606, AR Bank # 109) was > 64 µg/mL and the MIC (Klebsiella pneumoniae, KUB No. 5609, AR Bank # 112) was 32 µg/mL (≈ 62.1 µM). The MIC (Klebsiella pneumoniae, KUB No. 5610, AR Bank # 113) was > 64 µg/mL, the MIC (Klebsiella pneumoniae, KUB No. 5612, AR Bank # 115) was 32 µg/mL (≈ 62.1 µM) and the MIC (Klebsiella pneumoniae, KUB No. 5614, AR Bank # 117) was > 64 µg/mL. The MIC (Klebsiella pneumoniae, KUB No. 5617, AR Bank # 120) was 32 µg/mL (≈ 62.1 µM), the MIC (Klebsiella pneumoniae, KUB No. 5622, AR Bank # 125) was 32 µg/mL (≈ 62.1 µM) and the MIC (Klebsiella pneumoniae, KUB No. 5623, AR Bank # 126) was 64 µg/mL (≈ 124 µM). The MIC (Klebsiella pneumoniae, KUB No. 5626, AR Bank # 129) was 32 µg/mL (≈ 62.1 µM), the MIC (Klebsiella pneumoniae, KUB No. 5632, AR Bank # 135) was > 64 µg/mL and the MIC (Klebsiella pneumoniae, KUB No. 5635, AR Bank # 138) was > 64 µg/mL. The MIC (Klebsiella pneumoniae, KUB No. 5636, AR Bank # 139) was 64 µg/mL (≈ 124 µM), the MIC (Klebsiella pneumoniae, KUB No. 5637, AR Bank # 140) was > 64 µg/mL and the MIC (Klebsiella pneumoniae, KUB No. 5638, AR Bank # 141) was > 64 µg/mL. For the same compound, the MIC (Klebsiella pneumoniae, KUB No. 5639, AR Bank # 142) was > 64 µg/mL, the MIC (Klebsiella pneumoniae, KUB No. 5640, AR Bank # 143) was > 64 µg/mL and the MIC (Klebsiella pneumoniae, KUB No. 5642, AR Bank # 145) was 64 µg/mL (≈ 124 µM). For the same compound, the MIC (Klebsiella pneumoniae, KUB No. 5643, AR Bank # 146) was > 64 µg/mL, the MIC (Klebsiella pneumoniae, KUB No. 5645, AR Bank # 148) was 64 µg/mL (≈ 124 µM) and the MIC (Klebsiella pneumoniae, KUB No. 5649, AR Bank # 152) was > 64 µg/mL. The MIC (Klebsiella pneumoniae, KUB No. 5650, AR Bank # 153) was > 64 µg/mL, the MIC (Klebsiella pneumoniae, KUB No. 5655, AR Bank # 158) was > 64 µg/mL and the MIC (Klebsiella pneumoniae, KUB No. 5657, AR Bank # 160) was 2 µg/mL (≈ 3.88 µM). The MIC (Klebsiella pneumoniae, KUB No. 5757, AR Bank # 361) was 16 µg/mL (≈ 31 µM), the MIC (Klebsiella pneumoniae, KUB No. 5759, AR Bank # 363) was 16 µg/mL (≈ 31 µM) and the MIC (Klebsiella pneumoniae, KUB No. 5760, AR Bank # 364) was 4 µg/mL (≈ 7.76 µM). The MIC (Klebsiella pneumoniae, KUB No. 5772, AR Bank # 376) was > 64 µg/mL, the MIC (Klebsiella pneumoniae, Klebsiella pneumoniae KUB No. 5784, AR Bank #438) was > 64 µg/mL and the MIC (Klebsiella pneumoniae, Klebsiella pneumoniae KUB No. 5797, AR Bank #453) was > 64 µg/mL. The MIC (Klebsiella pneumoniae, Klebsiella pneumoniae KUB No. 5809, AR Bank #504) was > 64 µg/mL, the MIC (Klebsiella pneumoniae, Klebsiella pneumoniae KUB No. 5810, AR Bank #505) was > 64 µg/mL and the MIC (Klebsiella pneumoniae, Klebsiella pneumoniae KUB No. 5811, AR Bank #506) was > 64 µg/mL. The MIC (Klebsiella pneumoniae, Klebsiella pneumoniae KUB No. 5812, AR Bank #507) was > 64 µg/mL, the MIC (Klebsiella pneumoniae, Klebsiella pneumoniae KUB No. 5827, AR Bank #522) was > 64 µg/mL and the MIC (Klebsiella pneumoniae, Klebsiella pneumoniae KUB No. 5828, AR Bank #523) was 32 µg/mL (≈ 62.1 µM). For the same compound, the MIC (Klebsiella pneumoniae, Klebsiella pneumoniae KUB No. 5829, AR Bank #524) was 32 µg/mL (≈ 62.1 µM), the MIC (Klebsiella pneumoniae, Klebsiella pneumoniae KUB No. 5830, AR Bank #525) was 32 µg/mL (≈ 62.1 µM) and the MIC (Kluyvera ascorbata, KUB No. 5641, AR Bank # 144) was 16 µg/mL (≈ 31 µM). For the same compound, the MIC (Morganella morganii, KUB No. 5554, AR Bank# 57) was > 64 µg/mL, the MIC (Morganella morganii, KUB No. 5630, AR Bank # 133) was 64 µg/mL (≈ 124 µM) and the MIC (Proteus mirabilis, KUB No. 5556, AR Bank# 59) was 2 µg/mL (≈ 3.88 µM). For the same compound, the MIC (Proteus mirabilis, KUB No. 5652, AR Bank # 155) was 64 µg/mL (≈ 124 µM), the MIC (Proteus mirabilis, KUB No. 5653, AR Bank # 156) was 0.5 µg/mL (≈ 0.97 µM) and the MIC (Proteus mirabilis, KUB No. 5656, AR Bank # 159) was > 64 µg/mL. The MIC (Proteus mirabilis, KUB No. 5773, AR Bank # 377) was 16 µg/mL (≈ 31 µM), the MIC (Proteus mirabilis, KUB No. 5775, AR Bank # 379) was 4 µg/mL (≈ 7.76 µM) and the MIC (Providencia rettgeri, KUB No. 5579, AR Bank # 82) was 16 µg/mL (≈ 31 µM). The MIC (Raoultella ornithinolvtica, KUB No. 5631, AR Bank # 134) was 8 µg/mL (≈ 15.5 µM), the MIC (Salmonella enterica, Salmonella Senftenberg, KUB No. 5624, AR Bank # 127) was > 64 µg/mL and the MIC (Serratia marcescens, KUB No. 5588, AR Bank # 91) was 0.12 µg/mL (≈ 0.233 µM). It also gave an MIC (Serratia marcescens, KUB No. 5596, AR Bank # 99) of 0.25 µg/mL (≈ 0.485 µM), an MIC (Serratia marcescens, KUB No. 5618, AR Bank # 121) of 0.12 µg/mL (≈ 0.233 µM) and an MIC (Serratia marcescens, KUB No. 5619, AR Bank # 122) of 0.12 µg/mL (≈ 0.233 µM). The MIC (Serratia marcescens, KUB No. 5620, AR Bank # 123) was 0.12 µg/mL (≈ 0.233 µM), the MIC (Serratia marcescens, KUB No. 5621, AR Bank # 124) was 0.12 µg/mL (≈ 0.233 µM) and the MIC (Serratia marcescens, KUB No. 5627, AR Bank # 130) was 0.12 µg/mL (≈ 0.233 µM). The MIC (Serratia marcescens, KUB No. 5628, AR Bank # 131) was 0.12 µg/mL (≈ 0.233 µM), the MIC (Serratia marcescens, Serratia marcescens KUB No. 5822, AR Bank #517) was > 64 µg/mL and the MIC (Serratia marcescens, Serratia marcescens KUB No. 5825, AR Bank #520) was 0.25 µg/mL (≈ 0.485 µM). For the same compound, the MIC (Serratia marcescens, Serratia marcescens KUB No. 5826, AR Bank #521) was 8 µg/mL (≈ 15.5 µM), the MIC50 (carbapenemase-producing Enterobacterales, Metallo-β-lactamase (N = 47), read-out: MIC50) was > 64 µg/mL and the MIC90 (carbapenemase-producing Enterobacterales, Metallo-β-lactamase (N = 47)) was > 64 µg/mL. The MIC90 (carbapenemase-producing Enterobacterales, Serine carbapenemase (N=61)) was > 64 µg/mL.
